Each structure is given as a SMILES string. Like-named read-outs stand apart in the source and are kept apart here.

For assay [1], the target named is T1, SIK2 (Homo sapiens, UniProt Q9H0K1).
T1 construct: purchased ThermoFisher Scientific PV4792
The assay can be described thus: biochemical. As to conditions: ADP-Glo SIK kinase assay. On the procedure: (§1) The ADP-Glo™ kinase assay is a luminescent technology assay which measures the ADP formed from a kinase reaction. […] In a second step the kinase reactions are terminated and all the remaining ATP is depleted. In a final step the ADP is converted into ATP and this newly synthesized ATP is measured by using a luciferase/luciferin reaction. The generated light is measured using an Envision plate reader, wherein the luminescent signal obtained positively correlates with the kinase activity.
(§2) 1% DMSO and 10 μM staurosporine final concentrations are used as negative and positive controls.
(§3) 2 μL enzyme-substrate mixture is added to the assay plates.
(§4) The reaction is started by adding 2 μL diluted ATP on the assay plates. Plates are centrifuged for a few seconds at 1000 rpm and gently shaken for 2 min followed by an incubation at RT for 120 min.
(§5) The reactions are stopped and the unconsumed ATP is depleted by adding 5 μL ADP-Glo Reagent (Promega, Cat #V912B) to the reaction. The plates are centrifuged for a few seconds at 1000 rpm and incubated at RT for 40 min (ATP depletion).
(§6) The ADP is converted to ATP and luciferase and luciferin is introduced to detect ATP by adding 10 μL Kinase Detection Reagent (Promega, Cat #V913B+V914B) to the reaction. The plates are centrifuged for a few seconds at 1000 rpm and incubated at RT for 30 min (ADP detection).
(§7) Luminescence is measured on an Envision plate reader (PerkinElmer Inc.).
Background: ADP-Glo turns the ADP formed in a reaction into a luminescent signal.

The target in assay [2] is T2, SIK1 (Homo sapiens, UniProt P57059).
T2 construct: purchased Carna Biosciences 02-131
In words: biochemical. Particulars: ADP-Glo SIK kinase assay. On the procedure:
as §1, §2, §3, §4, §5, §6, §7

In assay [3] the target is T3, SIK3 (Homo sapiens, UniProt Q9Y2K2).
T3 construct: purchased SignalChem S12-11G-100
In words: biochemical. Particulars: ADP-Glo SIK kinase assay. On the procedure: as §1, §2, §3, §4, §5, §6, §7

Assay [4] concerns the target T1, SIK2. In words: biochemical. Particulars: 33P radioactive SIK kinase assay, AMARA peptide, 10 μM ATP. The method, boiled down:
(§8)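 Radiometric assay: SIK1, SIK2 or SIK3 phosphorylates AMARA peptide using unlabelled plus [^33P]-γ-ATP, reaction started by ATP addition. Stopped with 150 mM phosphoric acid, filter-harvested and washed; incorporated ^33P counted by scintillation. Controls: 1% DMSO and 10 μM staurosporine final.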

Assay [5] addresses T2, SIK1. The assay can be described thus: biochemical. As to conditions: 33P radioactive SIK kinase assay, AMARA peptide, 10 μM ATP; read-out: SIK1 IC50. Summed up: as §8
Assay [6] has as its target T3, SIK3. In words: biochemical. Summed up: as §8
In assay [7] the test system is LPS-induced TNFα secretion in monocyte-derived macrophages (MdM). The assay can be described thus: MdM assay: LPS-triggered TNFα (ELISA). The class given is cell-based, human. As to conditions: Homo sapiens, Macrophage, LPS-triggered TNFα inhibition. The method, boiled down: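 Human CD14+ monocytes isolated from buffy-coat PBMCs by magnetic beads, differentiated to macrophages; on day 10 compound preincubated 1 h at 37 °C, then LPS 200 ng/mL added (0.2% DMSO). Supernatant taken after 20 h; TNFα quantified by sandwich ELISA against standard curve.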
(In general: In an ELISA, binding on a coated surface is turned into a signal by an enzyme label.)

T2 sequence (P57059 whole entry): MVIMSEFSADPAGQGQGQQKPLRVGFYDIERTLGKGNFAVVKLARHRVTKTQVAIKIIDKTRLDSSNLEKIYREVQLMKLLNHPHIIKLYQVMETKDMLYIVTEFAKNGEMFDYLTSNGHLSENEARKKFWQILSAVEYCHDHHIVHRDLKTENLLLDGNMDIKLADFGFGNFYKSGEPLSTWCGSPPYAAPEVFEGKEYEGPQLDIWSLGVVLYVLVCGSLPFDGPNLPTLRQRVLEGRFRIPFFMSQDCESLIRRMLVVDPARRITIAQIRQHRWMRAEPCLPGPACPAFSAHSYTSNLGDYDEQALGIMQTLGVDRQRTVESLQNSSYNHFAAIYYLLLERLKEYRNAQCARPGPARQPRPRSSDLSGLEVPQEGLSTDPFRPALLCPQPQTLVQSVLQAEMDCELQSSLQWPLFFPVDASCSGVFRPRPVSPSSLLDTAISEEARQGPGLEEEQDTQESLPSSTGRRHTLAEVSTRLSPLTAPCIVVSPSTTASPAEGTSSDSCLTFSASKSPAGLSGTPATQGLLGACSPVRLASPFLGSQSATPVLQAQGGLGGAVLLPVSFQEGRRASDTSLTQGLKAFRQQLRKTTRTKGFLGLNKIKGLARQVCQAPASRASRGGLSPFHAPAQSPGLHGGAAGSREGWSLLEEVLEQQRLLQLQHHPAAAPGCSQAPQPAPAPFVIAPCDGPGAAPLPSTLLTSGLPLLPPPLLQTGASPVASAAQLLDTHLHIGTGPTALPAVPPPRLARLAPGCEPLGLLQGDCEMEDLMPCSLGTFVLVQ
T3 sequence (Q9Y2K2 whole entry): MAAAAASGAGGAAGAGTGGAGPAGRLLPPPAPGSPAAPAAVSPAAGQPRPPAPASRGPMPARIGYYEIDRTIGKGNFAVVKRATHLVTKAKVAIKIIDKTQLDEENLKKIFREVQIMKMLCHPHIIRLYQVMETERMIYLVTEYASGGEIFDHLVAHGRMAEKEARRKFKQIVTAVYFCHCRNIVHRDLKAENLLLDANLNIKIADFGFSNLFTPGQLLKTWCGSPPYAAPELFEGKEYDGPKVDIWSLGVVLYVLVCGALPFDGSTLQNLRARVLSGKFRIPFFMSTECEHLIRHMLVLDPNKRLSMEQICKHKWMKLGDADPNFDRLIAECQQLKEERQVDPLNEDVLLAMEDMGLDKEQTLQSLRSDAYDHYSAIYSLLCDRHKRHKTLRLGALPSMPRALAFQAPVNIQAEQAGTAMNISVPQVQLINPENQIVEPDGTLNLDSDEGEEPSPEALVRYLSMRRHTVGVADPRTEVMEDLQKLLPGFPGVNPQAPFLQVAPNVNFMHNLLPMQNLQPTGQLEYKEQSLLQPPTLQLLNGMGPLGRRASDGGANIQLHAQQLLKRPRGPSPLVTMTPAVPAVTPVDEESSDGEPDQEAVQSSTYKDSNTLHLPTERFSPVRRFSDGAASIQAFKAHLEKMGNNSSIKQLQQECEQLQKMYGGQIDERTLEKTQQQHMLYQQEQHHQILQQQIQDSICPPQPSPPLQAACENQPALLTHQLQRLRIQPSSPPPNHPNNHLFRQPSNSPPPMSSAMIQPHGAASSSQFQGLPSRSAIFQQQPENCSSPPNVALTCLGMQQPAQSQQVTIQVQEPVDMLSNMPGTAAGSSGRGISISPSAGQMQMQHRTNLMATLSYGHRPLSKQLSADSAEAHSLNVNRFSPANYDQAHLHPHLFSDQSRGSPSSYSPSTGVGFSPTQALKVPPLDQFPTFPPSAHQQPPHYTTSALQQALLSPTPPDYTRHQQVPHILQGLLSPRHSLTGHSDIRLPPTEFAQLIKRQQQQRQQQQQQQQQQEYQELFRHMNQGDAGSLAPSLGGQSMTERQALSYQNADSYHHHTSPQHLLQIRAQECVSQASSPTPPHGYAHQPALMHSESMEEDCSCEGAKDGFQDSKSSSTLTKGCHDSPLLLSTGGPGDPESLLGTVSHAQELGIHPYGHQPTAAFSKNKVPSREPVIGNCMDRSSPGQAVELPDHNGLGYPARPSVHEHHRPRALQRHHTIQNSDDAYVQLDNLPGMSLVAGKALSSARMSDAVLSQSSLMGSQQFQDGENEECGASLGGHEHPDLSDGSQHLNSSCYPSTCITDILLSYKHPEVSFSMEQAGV
T1 sequence (Q9H0K1 whole entry): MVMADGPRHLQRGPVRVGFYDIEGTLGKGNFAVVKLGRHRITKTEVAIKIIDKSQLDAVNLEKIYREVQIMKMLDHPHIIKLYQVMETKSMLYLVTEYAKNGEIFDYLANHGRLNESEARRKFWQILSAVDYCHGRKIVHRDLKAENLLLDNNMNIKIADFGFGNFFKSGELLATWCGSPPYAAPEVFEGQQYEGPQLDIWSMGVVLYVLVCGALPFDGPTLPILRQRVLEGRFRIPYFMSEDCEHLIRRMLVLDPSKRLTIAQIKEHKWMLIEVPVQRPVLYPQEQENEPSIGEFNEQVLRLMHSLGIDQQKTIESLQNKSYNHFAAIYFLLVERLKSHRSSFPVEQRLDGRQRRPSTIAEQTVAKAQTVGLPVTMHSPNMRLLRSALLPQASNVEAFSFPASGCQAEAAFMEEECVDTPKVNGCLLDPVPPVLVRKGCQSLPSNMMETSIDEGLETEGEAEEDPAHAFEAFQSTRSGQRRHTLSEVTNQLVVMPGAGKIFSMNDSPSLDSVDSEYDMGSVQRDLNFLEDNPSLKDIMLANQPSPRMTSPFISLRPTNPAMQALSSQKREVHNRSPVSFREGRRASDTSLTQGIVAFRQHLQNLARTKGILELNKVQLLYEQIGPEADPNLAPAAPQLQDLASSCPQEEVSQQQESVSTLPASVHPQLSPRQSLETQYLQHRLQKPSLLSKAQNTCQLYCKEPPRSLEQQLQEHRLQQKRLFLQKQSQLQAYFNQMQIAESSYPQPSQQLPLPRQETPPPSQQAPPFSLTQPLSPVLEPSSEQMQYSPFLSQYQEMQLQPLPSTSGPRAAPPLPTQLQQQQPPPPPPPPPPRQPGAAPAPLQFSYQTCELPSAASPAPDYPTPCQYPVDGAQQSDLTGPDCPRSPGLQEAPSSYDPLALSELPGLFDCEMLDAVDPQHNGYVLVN

As a reminder, the IC50 is the point on the concentration scale where inhibition reaches its midpoint. Regarding `CCN1Cc2cc(-n3cnc4cc(-c5cnn(C)c5)ccc43)cc(F)c2C1=O` [Cpd 175, 2-ethyl-7-fluoro-5-[5-(1-methylpyrazol-4-yl)benzimidazol-1-yl]isoindolin-1-one], the IC50 was 100 to 500 nM against SIK2 [1]; over 500 nM against SIK1 [2]; 100 to 500 nM against SIK3 [3]; 100 to 500 nM on SIK2 [4]; over 500 nM at SIK1 [5]; 100 to 500 nM on SIK3 [6].
In the case of `CCN1Cc2cc(-n3cnc4cc(-c5cnn(C)c5)ccc43)cc(NCCO)c2C1=O` [Cpd 202, 2-ethyl-7-(2-hydroxyethylamino)-5-[5-(1-methylpyrazol-4-yl)benzimidazol-1-yl]isoindolin-1-one], the IC50 is 100 to 500 nM against SIK2 [1]; 100 to 500 nM at SIK1 [2]; 100 to 500 nM on SIK3 [3]; 100 to 500 nM at SIK2 [4]; 100 to 500 nM on SIK1 [5]; over 500 nM against SIK3 [6].
On to `COc1cc(-c2cnc3cc(-c4cnccc4C#N)ccn23)cc(OC)c1C(=O)NCC(F)(F)F` [Cpd 258], for which the IC50 on SIK2 [1] is over 500 nM; on SIK1 [2], over 500 nM; on SIK3 [3], 10 to 100 nM; at SIK2 [4], over 500 nM; on SIK1 [5] it was over 500 nM; against SIK3 [6] it was 100 to 500 nM.
For `COc1cc(-c2cnc3cc(-c4cnccc4C(N)=O)ccn23)cc(OC)c1C(=O)NCC(F)(F)F` [Cpd 259, 3-[3-[3,5-dimethoxy-4-(2,2,2-trifluoroethyl-carbamoyl)phenyl]imidazo[1,2-a]pyridin-7-yl]pyridine-4-carboxamide], the IC50 against SIK2 [1] is over 500 nM; against SIK1 [2] it was over 500 nM; against SIK3 [3], 10 to 100 nM; at SIK2 [4] it was over 500 nM; on SIK1 [5], over 500 nM; at SIK3 [6], 100 to 500 nM.
One may read the EC50 as the concentration that produces a half-maximal response. A higher EC50 goes with lower potency in that assay. Take `COc1cc(-c2cnc3cc(-c4ccc(C)nn4)ccn23)cc(OC(F)F)c1C(=O)NC1CC1` [Cpd 273, N-cyclopropyl-2-(difluoromethoxy)-6-methoxy-4-[7-(6-methylpyridazin-3-yl)imidazo[1,2-a]pyridin-3-yl]benzamide]: the EC50 in assay [7] fell in the range of 0.1 to 100 nM. Also, the IC50 was in the range of 0.01 to 10 nM against SIK2 [1], 10 to 100 nM at SIK1 [2] and 0.01 to 10 nM at SIK3 [3].
Compound `COc1cc(-c2cnc3cc(-c4cnn(C)c4)ccn23)cc(F)c1C(=O)NC1CC1` [Cpd 276, N-cyclopropyl-2-fluoro-6-methoxy-4-[7-(1-methylpyrazol-4-yl)imidazo[1,2-a]pyridin-3-yl]benzamide] returned an EC50 in assay [7] of 0.1 to 100 nM. For the same compound, the IC50 against SIK2 [1] lay within 0.01 to 10 nM; on SIK1 [2], 10 to 100 nM; at SIK3 [3], 0.01 to 10 nM.
On to `COCCOc1cc(-c2cnc3cc(-c4cnn(C)c4)ccn23)cc(OC)c1C(=O)NC1CC1` [Cpd 278, N-cyclopropyl-2-methoxy-6-(2-methoxyethoxy)-4-[7-(1-methylpyrazol-4-yl)imidazo[1,2-a]pyridin-3-yl]benzamide], for which the EC50 in assay [7] was in the range of 100 to 1000 nM. The IC50 at SIK2 [1] was in the range of 0.01 to 10 nM; at SIK1 [2], 10 to 100 nM; against SIK3 [3] it was 0.01 to 10 nM.
`CCOC(=O)C(Cn1cc(-c2ccn3c(-c4cc(OC)c(C(=O)NCC(F)(F)F)c(OC)c4)cnc3c2)cn1)C(C)C` (stereo not shown) [Cpd 294] had an EC50 in assay [7] of 0.1 to 100 nM. For the same compound, the IC50 at SIK2 [1], at SIK1 [2] and at SIK3 [3] was 0.01 to 10 nM throughout.
On to `CCOC(=O)C(C)(C)n1cc(-c2ccn3c(-c4cc(OC)c(C(=O)NCC(F)(F)F)c(OC)c4)cnc3c2)cn1` [Cpd 295, ethyl 2-[4-[3-[3,5-dimethoxy-4-(2,2,2-trifluoroethyl-carbamoyl)phenyl]imidazo[1,2-a]pyridin-7-yl]pyrazol-1-yl]-2-methyl-propanoate], for which, in assay [7], the EC50 lay in the range of 0.1 to 100 nM. Further, the IC50 at SIK2 [1], at SIK1 [2] and on SIK3 [3] was 0.01 to 10 nM each time.
As for `CCOC(=O)C(C(C)C)n1cc(-c2ccn3c(-c4cc(OC)c(C(=O)NCC(F)(F)F)c(OC)c4)cnc3c2)cn1` (stereo not shown) [Cpd 296, ethyl 2-[4-(3-[3,5-dimethoxy-4-(2,2,2-trifluoro-ethylcarbamoyl)phenyl]imidazo[1,2-a]pyridin-7-yl]pyrazol-1-yl]-3-methyl-butanoate], the EC50 in assay [7] lay within 0.1 to 100 nM. For the same compound, the IC50 against SIK2 [1], against SIK1 [2] and at SIK3 [3] was 0.01 to 10 nM throughout.
`COc1cc(-c2cnc3cc(-c4cnn(CC(=O)OCC5CCCO5)c4)ccn23)cc(OC)c1C(=O)NCC(F)(F)F` (stereo not shown) [Cpd 297, tetrahydrofuran-2-ylmethyl 2-[4-[3-[3,5-dimethoxy-4-(2,2,2-trifluoro-ethylcarbamoyl)phenyl]imidazo[1,2-a]pyridin-7-yl]pyrazol-1-yl]acetate] returned an EC50 in assay [7] of 100 to 1000 nM. Besides, the IC50 on SIK2 [1], on SIK1 [2] and against SIK3 [3] was 0.01 to 10 nM in each case.
As for `CCOC(=O)COc1cn2c(-c3cc(OC)c(C(=O)NC4CC4)c(OC(F)F)c3)cnc2cc1-c1cnn(C)c1` [Cpd 298, ethyl 2-[3-[4-(cyclopropyl-carbamoyl)-3-(difluoromethoxy)-5-methoxy-phenyl]-7-(1-methylpvrazol-4-yl)imidazo[1,2-a]pyridin-6-yl]oxyacetate], the EC50 in assay [7] is 1000 to 5000 nM. Moreover, the IC50 on SIK2 [1], on SIK1 [2] and at SIK3 [3] was 0.01 to 10 nM throughout.
Turning to `COc1cc(-c2cnc3cc(-c4cnn(C)c4)c(OCC(=O)O)cn23)cc(OC(F)F)c1C(=O)NC1CC1` [Cpd 299, 2-[3-[4-(cyclopropyl-carbamoyl)-3-(difluoromethoxy)-5-methoxy-phenyl]-7-(1-melhylpyrazol-4-yl)imidazo[1,2-a]pyridin-6-yl]oxyacetic acid], in assay [7], the EC50 was over 5000 nM. Further, the IC50 was in the range of 0.01 to 10 nM at SIK2 [1], 10 to 100 nM against SIK1 [2] and 10 to 100 nM against SIK3 [3].
Regarding `CCN(CC)CCOC(=O)C(C)(C)n1cc(-c2ccn3c(-c4cc(OC)c(C(=O)NCC(F)(F)F)c(OC)c4)cnc3c2)cn1` [Cpd 305, 2-(diethylamino)ethyl 2-[4-[3-[3,5-dimethoxy-4-(2,2,2-trifluoroethyl-carbamoyl)phenyl]imidazo[1,2-a]pyridin-7-yl]pyrazol-1-yl]-2-methyl-propanoate], the EC50 in assay [7] is 100 to 1000 nM. The IC50 at SIK2 [1], against SIK1 [2] and at SIK3 [3] was 0.01 to 10 nM in each case.
As for `COc1cc(-c2cnc3cc(-c4cnn(C)c4)ccn23)cc(OC)c1C(=O)N[C@H]1C[C@@H]1C(F)F` [compound 172, N-[(1S,2S)-2-(difluoromethyl)cyclopropyl]-2,6-dimethoxy-4-[7-(1-methylpyrazol-4-yl)imidazo[1,2-a]pyridin-3-yl]benzamide], the IC50 against SIK2 [1] was 0.01 to 10 nM; on SIK1 [2] it was 0.01 to 10 nM; against SIK3 [3] it was 0.01 to 10 nM; at SIK2 [4] it was 0.01 to 10 nM; at SIK1 [5], 10 to 100 nM; against SIK3 [6], 0.01 to 10 nM.
Regarding `CCN1Cc2cc(-c3cnc4cc(-c5cnn(C)c5)ccn34)cc(NCCO)c2C1=O` [compound 201, 2-ethyl-7-(2-hydroxyethylainino)-5-[7-(1-methylpyrazol-4-yl)imidazo[1,2-a]pyridin-3-yl]isoindolin-1-one], the IC50 against SIK2 [1] was 10 to 100 nM; at SIK1 [2], 100 to 500 nM; on SIK3 [3] it was 10 to 100 nM; on SIK2 [4], 10 to 100 nM; on SIK1 [5], over 500 nM; against SIK3 [6], 100 to 500 nM.
Consider `COc1cc(-c2cnc3cc(-c4cnn(C5CN(C(=O)OC(C)(C)C)C5)c4)ccn23)cc(OC)c1C(=O)NCC(F)(F)F` [compound 260, tert-butyl 3-[4-[3-[3,5-dimethoxy-4-(2,2,2-trifluoroethyl-carbamoyl)phenyl]imidazo[1,2-a]pyridin-7-yl]pyrazol-1-yl]azetidine-1-carboxylate], for which the IC50 against SIK2 [1], against SIK1 [2], at SIK3 [3], on SIK2 [4], on SIK1 [5] and against SIK3 [6] was 0.01 to 10 nM each time.
Regarding `COc1cc(-c2cnc3cc(-c4ccc(N5CCOCC5)nn4)ccn23)cc(OC(F)F)c1C(=O)NC1CC1` [compound 286, N-cyclopropyl-2-(difluoromethoxy)-6-methoxy-4-[7-(6-morpholino-pyridazin-3-yl)imidazo[1,2-a]pyridin-3-yl]benzamide], the IC50 against SIK2 [1], at SIK1 [2] and against SIK3 [3] was 0.01 to 10 nM throughout.
